In patent US7323620B2, “Activation of equine oocytes” (Idaho Research Foundation, Inc., priority 2002, dated 2008):

Legend:
Oocytes from mules = experiment: Additional data in mules: calcium concentration in activation medium and peripheral media, pregnancies after nuclear transfer; type: in vivo, mule
Source text: The procedures of the above examples were repeated in order to compare results obtained with different concentrations of calcium in the activation medium and in peripheral media, that is media other than the activation medium. Oocytes from mules were placed into one of four groups as follows: In Groups 1 to 3, media was as described above in Examples 1 to 5, except for calcium concentration, which is as described below. In Group 4, media was HECM media.
Tissue Culture Medium (TCM)—199 with Earl's salts • 1.4 mM CaCl2 (1×) • 10% Fetal Bovine Serum (FBS) • 0.05 units FSH • 0.05 units LH • 100 units penicillin • 100 micrograms streptomycin Manipulation Medium:
PB1 (Whittingham, D G, J. Reprod. Fert., 37(1):159-162 (1974) • Dulbecco's phosphate buffered saline • 1.4 mM CaCl2 (1×) • 0.5 mM MgCl2 • 0.33 mM Na-pyruvate • 5.56 mM Glucose • 3 mg/ml Bovine Serum Albumin (BSA)—fraction 5 • 100 units penicillin • 10 micrograms streptomycin Transfer Medium
PB1 (as in Manipulation Medium) except 0.7 mM CaCl2 (1×)
(§1) Holding/Activation/Culture Medium for Group 4 in Example 9 and in horses in Example 10 • HECM (Ball et al., Amer. J. Vet. Res., 54(7):1139-44 (1993) • Ham's F-12+Dulbecco's […] (DMEM)—(50:50, v:v) • 0.71 mM CaCl2 (1×) • 29 mM NaHCO3 • 5 micrograms/ml insulin • 5 micrograms/ml transferrin • 5 ng/ml Na-selenite • 10 ng/ml EGF • 50 IU penicillin • 50 micrograms streptomycin

horse oocytes = experiment: Data in horses: protocol of Group 4 of Example 9 repeated with horse oocytes; type: in vivo
Experimental: The protocol of Group 4 of Example 9 was repeated with […] horse oocytes. Of these, pregnancy was detected at two weeks in 6 mares, […]. Of these 6, 3 pregnancies were detected at 30 days and 1 was detected at 45 days.
as §1

equine oocytes = experiment: Nuclear transfer with activation of oocytes in calcium chloride/ionomycin activation medium, embryo transfer and pregnancy detection by transrectal ultrasonography (cloned mule embryos); type: in vivo, mule (donor cells); recipient mare Equus caballus
Experimental: A primary culture of fibroblast cells was established from a 45-day mule fetus recovered from a domestic horse mare using transcervical uterine lavage. Culture medium was Glasgow MEM BHK-21 supplemented with 10% FBS, 100 units/ml penicillin, and 100 μg/ml streptomycin. Incubation was performed at 38.5° C. in a humidified atmosphere of 5% CO2 in air. Prior to the nuclear transfer procedure, the fibroblast cells were serum “starved” for 5 to 10 days by placing them into medium with 0.5% FBS.
Mares that were used as oocyte donors and as cloned-embryo recipients were of mixed breeding, 3 to 12 years old, and weighed 300 to 500 kg. The reproductive tracts of the mares were monitored by transrectal palpation and ultrasonography to assess follicular activity, ovulation, and the presence and degree of endometrial edema.
Oocytes were collected by one of three methods.
1. Recent (≦12 hours) post-ovulatory oocytes (n=12) were collected by surgically excising the oviduct ipsilateral to ovulation and then flushing the oviduct in a retrograde manner with modified DPBS.
2. Pre-ovulatory oocytes (n=3) were collected by surgically excising ovaries containing a pre-ovulatory follicle (≧35 mm) approximately 30 hours after administration of 2500 IU hCG and then manually aspirating the follicle.
3. Pre-ovulatory oocytes (n=180) were collected using transvaginal aspiration (TVA) of pre-ovulatory follicles approximately 24 hours after administration of 2500 IU hCG.
Oocytes collected post-ovulation were incubated for up to 6 hours in maturation medium (M-199) containing 10% FBS, 0.05 units/ml pFSH, 0.05 units/ml pLH, 10 units/ml penicillin and 10 μg/ml streptomycin. Oocytes collected pre-ovulation were incubated in maturation medium for approximately 12 hours.
Cumulus-free metaphase II oocytes and starved donor cells were placed in a manipulation drop of TL HEPES containing 7.5 μg of cytochalasin B. The first polar body and metaphase plate of the oocytes were drawn into a 25-28 ID enucleation pipette. The same pipette was used to aspirate a disaggregated donor cell nucleus and place it in the perivitelline space of an oocyte to obtain an NT couple. Fusion of NT couples was induced by a single 15 μsec, 2.2 kv/cm DC pulse in a 3.5 mm fusion chamber. Fusion medium was […] D-mannitol containing 0.5 mM HEPES and 0.05% fatty acid-free BSA. Fused NT couples were activated by placing them in an activation medium containing calcium chloride and ionomycin for 8 minutes. Three different concentrations of calcium chloride were used in the activation medium: 2 mM (n=133 oocytes), 6 mM (n=40 oocytes), and 20 mM (n=22 oocytes).
Immediately following nuclear transfer and activation, the oocytes, hereafter referred to as embryos, were surgically transferred to the oviduct of a recipient mare (Equus caballus) that had ovulated within 24 hours prior to the transfer. One to nine embryos were transferred to each mare. Pregnancy examinations on the recipient mare were performed using transrectal ultrasonography beginning on Day 12 post-transfer.

[1] = Group 4 (6x Ca activation, 3x peripheral media)
[2] = Group 4 protocol (6x Ca activation, 3x peripheral media), 59 horse oocytes
[3] = Group 4 protocol, of 6 two-week pregnancies
[4] = 2 mM calcium in activation medium
[5] = 6 mM calcium in activation medium
[6] = 20 mM calcium in activation medium

[Ca+2].[Cl-].[Cl-] [calcium chloride]
Two-week pregnancies detectable at 30 days (Oocytes from mules; Group 1 (1x Ca all media), of 2 two-week pregnancies): neither | PREGNANCIES (2 weeks) (Oocytes from mules; Group 1: 1x Ca (about 2 mM) all media): (1.7%) | PREGNANCIES (2 weeks), number (Oocytes from mules; Group 1: 1x Ca (about 2 mM) all media, 115 oocytes): 2 | Two-week pregnancies detectable at 30 days (Oocytes from mules; Group 2 (3x Ca activation medium), of 3 two-week pregnancies): 2 | PREGNANCIES (2 weeks) (Oocytes from mules; Group 2: 3x Ca (about 6 mM) in activation media, 1x Ca all other media): (7.5%) | PREGNANCIES (2 weeks), number (Oocytes from mules; Group 2: 3x Ca (about 6 mM) in activation media, 1x Ca all other media, 40 oocytes): 3 | PREGNANCIES (2 weeks) (Oocytes from mules; Group 3: 10x Ca (about 20 mM) in activation media, 1x Ca all other media): (9.09%) | PREGNANCIES (2 weeks), number (Oocytes from mules; Group 3: 10x Ca (about 20 mM) in activation media, 1x Ca all other media, 22 oocytes): 2 | Pregnancies detectable at 45 days (Oocytes from mules; [1]): Five | Pregnancies detectable at 120 days (Oocytes from mules; [1]): 3 | Two-week pregnancies detectable at 30 days (Oocytes from mules; Group 4 (6x Ca activation, 3x peripheral media), of 12 two-week pregnancies): 9 | PREGNANCIES (2 weeks) (Oocytes from mules; Group 4: 6x Ca (about 12 mM) in activation media, 3x Ca all other media, HECM media): (14.4%) | PREGNANCIES (2 weeks), number (Oocytes from mules; Group 4: 6x Ca (about 12 mM) in activation media, 3x Ca all other media, HECM media, 132 oocytes): 19 | Pregnancy detected at two weeks (horse oocytes; [2]): 4.4% | Pregnancy detected at two weeks, number of mares (horse oocytes; [2]): 6 | Pregnancies detected at 30 days (horse oocytes; [3]): 3 | Pregnancies detected at 45 days (horse oocytes; [3]): 1 | Pregnancy Rate (equine oocytes; [4]): (1.5%) | Pregnancy Rate (pregnancies/oocytes) (equine oocytes; [4]): 2/133 | Pregnancy Rate (equine oocytes; [5]): (7.5%) | Pregnancy Rate (pregnancies/oocytes) (equine oocytes; [5]): 3/40 | Ultrasonography of cloned mule conceptus (equine oocytes; 6 mM calcium in activation medium, Day 32 of gestation): an embryonic heart was evident | Pregnancy Rate (equine oocytes; [6]): (9.1%) | Pregnancy Rate (pregnancies/oocytes) (equine oocytes; [6]): 2/22 | Pregnancies, higher versus lower calcium (equine oocytes; 6 and 20 mM combined compared to 2 mM in activation medium, P<0.05): more pregnancies
